Data taken from patent publication EP0137692A2, “New antibiotic, neocopiamycin A and the production thereof” (Arai, Tadashi, Prof., priority 1983, dated 1985).

Key:
[1] = tested on: Gram-positive bacteria; assay: MIC by serial two-fold agar dilution method (Muller-Hilton agar); format: cell-based; settings: 24 hours or 4 days at 37°C
Description: (§1) Neocopiamycin A has the following physico-chemical properties. • (1) Color and Appearance: neutral, colorless, hygroscopic powder. • (2) Melting point: 134 - 136°C. […] Neocopiamycin A gives negative reactions to biuret, ninhydrin, Molisch, Fehling, ferric chloride, Liebermann-Burchard, 2,4-dinitrophenylhydrazine reagents, but possitive reactions to Dragendorff, platinic iodide and Sakaguchi reagents. […] [formula] • (12) Chemical structure: • According to spectral data and physicochemical characteristics, the sturcture of neocopiamycin A can be presumed to have the following formula:- [drawing 3] • Neocopiamycin A has the following biological properties. • (13) Antimicrobial Activity • The minimum inhibitory concentration (MIC) of neocopiamycin A against bacteria, yeast and fungi were determined by a serial two-fold agar dilution method. […] The MICs were determined after incubation for 24 hours or 4 days at 37^*C for bacteria, and after incubation 24 hours to 7 days at 37°C for yeasts and fungi, depending on the test strain. • Antimicrobial spectrum of neocopiamycin A is given in Tables 2, 3 and 4 below. […] Antifungal spectra of copiamycin were similarly determined for the comparison purpose. […] [formula] • (14) Acute Toxicity • Acute toxicity of neocopiamycin A was determined with ddY mice weighing 20 to 21 g. […]

[2] = tested on: Gram-negative bacteria; assay: as above; format: cell-based; settings: 24 hours or 4 days at 37°C
Description: as §1

[3] = tested on: Trichomonas vaginalis; assay: Growth inhibition in thioglycolate medium; format: cell-based; set-up: unit not given here; settings: thioglycolate medium with 0.5% dextrin and 15% bovine serum
[4] = Solubility; format: physicochemical
Description: as §1

[5] = tested on: ddY mice; assay: Acute toxicity; format: in vivo; settings: for dose tolerated by all mice for 14 days without any toxic signs: mouse, in vivo
Description: Neocopiamycin A has the following physico-chemical properties. • (1) Color and Appearance: neutral, colorless, hygroscopic powder. • (2) Melting point: 134 - 136°C. […] Neocopiamycin A gives negative reactions to biuret, ninhydrin, Molisch, Fehling, ferric chloride, Liebermann-Burchard, 2,4-dinitrophenylhydrazine reagents, but possitive reactions to Dragendorff, platinic iodide and Sakaguchi reagents. It also gives pinkish coloration with conc. sulfuric acid, which subsequently turned brown with time. • (8) Ultra violet absorption spectrum: As shown in Fig. 1 of the accompanying drawings. λ^MeOHmax 205 nm (log ε 4.2) • (9) Infrared absorption spectrum: As-shown in Fig. 2 of the accompanying drawing. IR (KBr)(cm^-1) : 3380, 2975, 2925, 1715, 1655, 1595, 1455, 1375, 1240, 1140, 1070, 975, 845. • (10) NMR spectrum: As shown in Fig. 3 of the accompanying drawing. • (11) Rf values of TLC: • A purified sample of neocopiamycin A gives only one spot when chromatographed on thin layer chromatography TLC (Silica gel 60, plate F254) in different solvent systems and bioautographed against Candida albicans or absorption of ultraviolet. The Rf values and solvent systems employed are summarized in Table 1. [formula] • (12) Chemical structure: • According to spectral data and physicochemical characteristics, the sturcture of neocopiamycin A can be presumed to have the following formula:- [drawing 3] • Neocopiamycin A has the following biological properties. • (13) Antimicrobial Activity • The minimum inhibitory concentration (MIC) of neocopiamycin A against bacteria, yeast and fungi were determined by a serial two-fold agar dilution method. The medium used was Muller-Hilton agar for bacteria, and Sabouraud dextrose agar for yeasts and fungi. The antibiotic was dissolved in a small amount of ethanol and diluted with sterilized water to give final agar media containing less than one percent of the organic solvent, which was not a harmful concentration against the organisms tested. The MICs were determined after incubation for 24 hours or 4 days at 37^*C for bacteria, and after incubation 24 hours to 7 days at 37°C for yeasts and fungi, depending on the test strain. • Antimicrobial spectrum of neocopiamycin A is given in Tables 2, 3 and 4 below. […] Furthermore, it should be pointed out that neocopiamycin A inhibits the growth of both the filamentous and yeast- like fungi at the concentrations below 10 µg/ml. […] Antifungal spectra of copiamycin were similarly determined for the comparison purpose. [formula] [formula] • (14) Acute Toxicity • Acute toxicity of neocopiamycin A was determined with ddY mice weighing 20 to 21 g. Neocopiamycin A was finely pulverized and suspended in 15% aqueous ethanol solution for intraveneous, intraperitoneal and oral administrations. […]

[6] = tested on: yeasts and fungi; assay: MIC by serial two-fold agar dilution method (Sabouraud dextrose agar); format: cell-based
Description: Neocopiamycin A has the following physico-chemical properties. • (1) Color and Appearance: neutral, colorless, hygroscopic powder. • (2) Melting point: 134 - 136°C. […] Neocopiamycin A gives negative reactions to biuret, ninhydrin, Molisch, Fehling, ferric chloride, Liebermann-Burchard, 2,4-dinitrophenylhydrazine reagents, but possitive reactions to Dragendorff, platinic iodide and Sakaguchi reagents. It also gives pinkish coloration with conc. sulfuric acid, which subsequently turned brown with time. • (8) Ultra violet absorption spectrum: As shown in Fig. 1 of the accompanying drawings. λ^MeOHmax 205 nm (log ε 4.2) • (9) Infrared absorption spectrum: As-shown in Fig. 2 of the accompanying drawing. IR (KBr)(cm^-1) : 3380, 2975, 2925, 1715, 1655, 1595, 1455, 1375, 1240, 1140, 1070, 975, 845. • (10) NMR spectrum: As shown in Fig. 3 of the accompanying drawing. • (11) Rf values of TLC: • A purified sample of neocopiamycin A gives only one spot when chromatographed on thin layer chromatography TLC (Silica gel 60, plate F254) in different solvent systems and bioautographed against Candida albicans or absorption of ultraviolet. […] [formula] • (12) Chemical structure: • According to spectral data and physicochemical characteristics, the sturcture of neocopiamycin A can be presumed to have the following formula:- [drawing 3] • Neocopiamycin A has the following biological properties. • (13) Antimicrobial Activity • The minimum inhibitory concentration (MIC) of neocopiamycin A against bacteria, yeast and fungi were determined by a serial two-fold agar dilution method. […] The MICs were determined after incubation for 24 hours or 4 days at 37^*C for bacteria, and after incubation 24 hours to 7 days at 37°C for yeasts and fungi, depending on the test strain. • Antimicrobial spectrum of neocopiamycin A is given in Tables 2, 3 and 4 below. […] Antifungal spectra of copiamycin were similarly determined for the comparison purpose. […] [formula] • (14) Acute Toxicity • Acute toxicity of neocopiamycin A was determined with ddY mice weighing 20 to 21 g. […]

## CC(CCC/C=C/CCCN=C(N)N)CC(C)C1OC(=O)C=CC(C)C(O)CC(O)C(C)C(O)CCC(C)C(O)CC2(O)OC(CC(OC(=O)CC(=O)O)CC(O)CC(O)C(C)C(O)/C=C\C1C)CC(O)C2O (stereo not drawn) [neocopiamycin A]
[1]
  antimicrobial activity against Gram-positive bacteria: active
[2]
  antimicrobial activity against Gram-negative bacteria: inactive
[3]
  concentration inhibiting the growth of Trichomonas vaginalis: 1.56
[4]; acetone, dioxane, chloroform, carbon tetrachloride, ethyl acetate, butyl acetate, petroleum ether, benzene, methyl isobutyl ketone and water
  Solubility: sparingly soluble or insoluble
[4]; methanol, ethanol, n-butanol, pyridine, dimethylformamide, glacial acetic acid
  Solubility: soluble
[5]; comparison with copiamycin
  toxicity compared with copiamycin: less toxic than copiamycin
[5]; ip, 336 h
  dose tolerated by all mice for 14 days without any toxic signs: more than 1,000 mg/kg
[5]; iv
  dose tolerated by all mice for 14 days without any toxic signs: 30
[5]; po, 336 h
  dose tolerated by all mice for 14 days without any toxic signs: more than 1,000 mg/kg
[6]; Sabouraud dextrose agar, incubation 24 hours to 7 days at 37°C
  concentrations inhibiting the growth of both the filamentous and yeast-like fungi: below 10 µg/ml
[6]; Tables 2, 3 and 4, comparison with copiamycin
  antimicrobial activity compared with copiamycin: much higher antimicrobial activity than copiamycin
[6]; wide range of fungi, yeasts, agar dilution
  antimicrobial activity against fungi, yeasts: active
